# Test results published in ChEMBL document CHEMBL1135010, “Synthetic studies of cis-4-Amino-L-proline derivatives as novel lipid lowering agents” (2002).
# Active and inactive are the calls of the source. The calls are words filed in the database; no cut-off is given here.
# Tests used:
# [1] = Screening was performed to determine its plasma triglyceride lowering activity on administration of 10 mg/kg/day dose for 6 days on inbreed colony of Swiss Albino Mice; format: functional, Mus musculus
# [2] = Screening was performed to determine its plasma triglyceride lowering activity on administration of 30 mg/kg/day dose for 6 days on inbreed colony of Swiss Albino Mice; format: functional, Mus musculus
# Mus musculus = assay: Screening was performed to determine its plasma triglyceride lowering activity on administration of 10 mg/kg/day on inbreed colony of Swiss Albino Mice; No significant reduction; format: functional, organism-based
SMILES,Lowering activity [1],Lowering activity [2],Lowering activity (Mus musculus)
CCc1nc2ccccc2c(=O)n1CC(=O)N[C@H]1C[C@@H](C(=O)O)N(C(=O)OC(C)(C)C)C1,30%,,
CCCc1nn(C)c2c(=O)n(CC(=O)N[C@H]3C[C@@H](C(=O)OCC)N(C(=O)OC(C)(C)C)C3)c(CC)nc12,40%,,
CC(C)OC(=O)C(C)(C)Oc1ccc(C(=O)c2ccc(Cl)cc2)cc1 [FENOFIBRATE],,36%,inactive
